Results from patent publication US12391737B2, “Soluble NPY2 receptor agonists” (Boehringer Ingelheim International GmbH, priority 2020, dated 2025).

Columns and labels:
[1] = target: T1, human NPY5 receptor (hY5R) (Homo sapiens, UniProt Q15761); assay: HTRF cAMP Gi assay, hY5R
T1 sequence (Q15761 1-445): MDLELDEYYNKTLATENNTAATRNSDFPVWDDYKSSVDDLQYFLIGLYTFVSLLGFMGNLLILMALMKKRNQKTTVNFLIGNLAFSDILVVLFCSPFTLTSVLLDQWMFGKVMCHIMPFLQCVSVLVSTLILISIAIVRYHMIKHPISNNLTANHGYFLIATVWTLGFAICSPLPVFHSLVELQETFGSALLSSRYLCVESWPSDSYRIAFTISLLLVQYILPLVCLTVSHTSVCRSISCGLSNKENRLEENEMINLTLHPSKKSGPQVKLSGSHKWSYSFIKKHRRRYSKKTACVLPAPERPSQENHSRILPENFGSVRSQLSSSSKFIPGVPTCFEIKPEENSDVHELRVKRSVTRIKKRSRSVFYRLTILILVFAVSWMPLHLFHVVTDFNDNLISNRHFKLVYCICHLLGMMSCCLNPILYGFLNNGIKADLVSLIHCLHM

[2] = target: T2, human NPY1 receptor (hY1R) (Homo sapiens, UniProt P25929); assay: HTRF cAMP Gi assay, hY1R; assay type: cell-based; conditions: CHO-K1 cells
T2 construct: expressed in transfected cells; host or cells: CHO-K1
T2 sequence (P25929 1-384): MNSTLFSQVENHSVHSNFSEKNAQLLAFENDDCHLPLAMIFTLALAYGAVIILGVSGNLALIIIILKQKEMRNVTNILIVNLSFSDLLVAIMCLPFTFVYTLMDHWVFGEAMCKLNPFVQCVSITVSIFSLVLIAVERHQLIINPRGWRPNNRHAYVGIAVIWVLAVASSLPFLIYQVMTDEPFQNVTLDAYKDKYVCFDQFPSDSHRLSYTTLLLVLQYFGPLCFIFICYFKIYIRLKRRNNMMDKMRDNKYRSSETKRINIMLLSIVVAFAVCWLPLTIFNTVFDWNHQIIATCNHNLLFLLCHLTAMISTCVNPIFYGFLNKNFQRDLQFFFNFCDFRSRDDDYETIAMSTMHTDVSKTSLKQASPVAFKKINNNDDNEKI

[3] = Solubility determination; conditions: for Sol6: pH 6; for Sol7: pH 7
Outline: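 Solubility is derived from the ratio of reversed-phase peak areas, filtered sample over a control dissolved at 1 mg/ml in 50% acetonitrile. Peptides are agitated for 2 hours at room temperature in 0.1 M sodium diphosphate at pH 6.4 or 7.0, aiming at 10 mg/ml.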

[4] = target: T3, human NPY4 receptor (hY4R) (Homo sapiens, UniProt P50391); assay: HTRF cAMP Gi assay, hY4R; assay type: cell-based; conditions: CHO-K1 cells
T3 construct: expressed in transfected cells; host or cells: CHO-K1
T3 sequence (P50391 whole entry): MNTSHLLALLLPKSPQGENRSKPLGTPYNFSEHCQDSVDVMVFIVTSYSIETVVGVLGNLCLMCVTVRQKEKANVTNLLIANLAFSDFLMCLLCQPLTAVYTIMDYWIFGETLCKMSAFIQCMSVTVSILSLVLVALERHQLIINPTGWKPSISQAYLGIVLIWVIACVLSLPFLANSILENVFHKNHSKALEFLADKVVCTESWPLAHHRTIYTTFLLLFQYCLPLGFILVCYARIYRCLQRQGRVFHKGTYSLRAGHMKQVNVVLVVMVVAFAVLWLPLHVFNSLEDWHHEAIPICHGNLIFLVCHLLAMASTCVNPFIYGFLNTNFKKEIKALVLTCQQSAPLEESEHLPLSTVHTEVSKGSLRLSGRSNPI
Description: Briefly, the production of intracellular cAMP will generate a competition between unlabeled cAMP and exogenously added d2-cAMP for anti-cAMP antibodies conjugated to cryptate. CHO-K1 cells stably expressing the human NPY1, NPY2, NPY4 and NPY5 receptors were used with the cells brought to life from a frozen stock immediately before assay performance. 2000 cells per well were applied for all four NPY receptor subtype assays. A 384-well format was used applying a total volume of 20 μl using 5 μl cells, 2.5 μl peptide agonist, 2.5 μl forskolin and 5 μl of each of the fluorophores. […] Concentration-response evaluation of compounds was performed with 11 concentrations of agonist peptides (covering 3 decades). EC50 values were calculated by nonlinear regression using sigmoid concentration-response with variable slope.

[5] = target: T4, Human Neuropeptide Y2 Receptor (Homo sapiens, UniProt P49146); assay: Radioligand binding competition assay (RLB); conditions: Table 3, 125I-PYY(1-36) competition; read-out: Ki
T4 construct: purchased CHEMICON HTS066M
T4 sequence (P49146 1-381): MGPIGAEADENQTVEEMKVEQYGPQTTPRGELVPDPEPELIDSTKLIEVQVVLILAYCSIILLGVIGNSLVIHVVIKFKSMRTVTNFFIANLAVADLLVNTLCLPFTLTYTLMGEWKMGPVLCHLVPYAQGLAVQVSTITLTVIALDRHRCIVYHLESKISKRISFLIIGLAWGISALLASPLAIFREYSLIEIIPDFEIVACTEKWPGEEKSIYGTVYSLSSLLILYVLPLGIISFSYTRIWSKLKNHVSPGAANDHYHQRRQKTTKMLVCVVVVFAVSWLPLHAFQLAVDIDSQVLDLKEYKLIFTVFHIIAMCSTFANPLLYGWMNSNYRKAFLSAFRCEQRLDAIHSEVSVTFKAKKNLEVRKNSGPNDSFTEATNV
Outline: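 IC50 values come from sigmoidal dose-response fits of scintillation counts after peptides competed for radioligand binding at receptor membranes (0.5 μg protein/well). Incubation ran 2 h at room temperature in HEPES buffer, pH 7.4, with Mg2+, Ca2+ and 0.2% ovalbumin.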

EC50 [1] [nM]	EC50 [2] [nM]	Sol6 [3] [mg/mL]	Sol7 [3] [mg/mL]	EC50 [4] [nM]	Ki [5] [nM]	Structure (SMILES)
> 5000	> 5000	9.8	9.9	> 5000	–	CC(C)CC(=O)N[C@@H](C)C(=O)N1CCC[C@H]1C(=O)N[C@@H](CCC(=O)O)C(=O)N[C@@H](CCCCNC(=O)CCCCCNC(=O)CC[C@H](NC(=O)CCCCCCCCCCCCCCCCC(=O)O)C(=O)O)C(=O)N1CCC[C@H]1C(=O)N[C@@H](CCC(=O)O)C(=O)N[C@@H](C)C(=O)N[C@@H](CCC(=O)O)C(=O)N[C@@H](C)C(=O)N[C@@H](CO)C(=O)N1CCC[C@H]1C(=O)N[C@@H](CCC(=O)O)C(=O)N[C@@H](CCC(=O)O)C(=O)N[C@@H](CC(C)C)C(=O)N[C@@H](CCC(N)=O)C(=O)N[C@@H](CCCNC(=N)N)C(=O)N[C@@H](Cc1ccc(O)cc1)C(=O)N[C@@H](Cc1ccc(O)cc1)C(=O)N[C@H](C(=O)N[C@@H](CO)C(=O)N[C@@H](CC(C)C)C(=O)N[C@@H](CCCNC(=N)N)C(=O)N[C@@H](Cc1c[nH]cn1)C(=O)N[C@@H](Cc1ccc(O)cc1)C(=O)N[C@@H](Cc1ccc(O)cc1)C(=O)N[C@@H](CC(N)=O)C(=O)N[C@@H](Cc1c[nH]c2ccccc12)C(=O)N[C@@H](CC(C)C)C(=O)N[C@H](C(=O)N[C@@H](CCCNC(=N)N)C(=O)N[C@@H](CCC(N)=O)C(=O)N[C@@H](CCCNC(=N)N)C(=O)N[C@@H](Cc1ccc(O)cc1)C(N)=O)[C@@H](C)O)C(C)C [Compound 122, N{alpha-4}-(3-methylbutanoyl)-N{epsilon-7}-(6-[(4S)-4-carboxy-4-(17-carboxyheptadecanamido)butanamido]hexanoyl)-[4A,7K,9E,10A,11E,18Q,22V,28Y,30W,31L]-hPYY(4-36)]
> 5000	–	9.8	10.0	–	12.6	CC(C)CC(=O)N[C@@H](C)C(=O)N1CCC[C@H]1C(=O)N[C@@H](CCC(=O)O)C(=O)N[C@@H](CCCCNC(=O)CCCCCNC(=O)CC[C@H](NC(=O)CCCCCCCCCCCCCCCCC(=O)O)C(=O)O)C(=O)N1CCC[C@H]1C(=O)N[C@@H](CCC(=O)O)C(=O)N[C@@H](CCC(=O)O)C(=O)N[C@@H](CCC(=O)O)C(=O)N[C@@H](C)C(=O)N[C@@H](CO)C(=O)N1CCC[C@H]1C(=O)N[C@@H](CCC(=O)O)C(=O)N[C@@H](CCC(=O)O)C(=O)N[C@@H](CC(C)C)C(=O)N[C@@H](CCC(N)=O)C(=O)N[C@@H](CCCNC(=N)N)C(=O)N[C@@H](Cc1ccc(O)cc1)C(=O)N[C@@H](Cc1ccc(O)cc1)C(=O)N[C@H](C(=O)N[C@@H](CO)C(=O)N[C@@H](CC(C)C)C(=O)N[C@@H](CCCNC(=N)N)C(=O)N[C@@H](Cc1c[nH]cn1)C(=O)N[C@@H](Cc1ccc(O)cc1)C(=O)N[C@@H](Cc1ccc(O)cc1)C(=O)N[C@@H](CC(N)=O)C(=O)N[C@@H](Cc1c[nH]c2ccccc12)C(=O)N[C@@H](CC(C)C)C(=O)N[C@H](C(=O)N[C@@H](CCCNC(=N)N)C(=O)N[C@@H](CCC(N)=O)C(=O)N[C@@H](CCCNC(=N)N)C(=O)N[C@@H](Cc1ccc(O)cc1)C(N)=O)[C@@H](C)O)C(C)C [Compound 23, N{alpha-4}-(3-methylbutanoyl)-N{epsilon-7}-(6-[(4S)-4-carboxy-4-(17-carboxyheptadecanamido)butanamido]hexanoyl)[4A,7K,9E,11E,18Q,22V,28Y,30W,31L]-hPYY(4-36)]
> 5000	–	9.3	9.2	–	3.98	CC[C@H](C)[C@H](NC(=O)[C@H](CCC(=O)O)NC(=O)[C@H](CCC(=O)O)NC(=O)[C@@H]1CCCN1C(=O)[C@H](CO)NC(=O)[C@H](C)NC(=O)[C@H](CC(=O)O)NC(=O)[C@H](CCC(=O)O)NC(=O)[C@H](CCC(=O)O)NC(=O)[C@@H]1CCCN1C(=O)[C@H](CCCCNC(=O)CCCCCNC(=O)CC[C@H](NC(=O)CCCCCCCCCCCCCCCCC(=O)O)C(=O)O)NC(=O)[C@H](CCC(=O)O)NC(=O)[C@@H]1CCCN1C(=O)[C@H](C)NC(=O)CC(C)C)C(=O)N[C@@H](CCC(N)=O)C(=O)N[C@@H](CCC(N)=O)C(=O)N[C@@H](Cc1ccc(O)cc1)C(=O)N[C@@H](Cc1ccc(O)cc1)C(=O)N[C@H](C(=O)N[C@@H](CO)C(=O)N[C@@H](CC(C)C)C(=O)N[C@@H](CCCNC(=N)N)C(=O)N[C@@H](Cc1c[nH]cn1)C(=O)N[C@@H](Cc1ccc(O)cc1)C(=O)N[C@@H](Cc1ccc(O)cc1)C(=O)N[C@@H](CC(N)=O)C(=O)N[C@@H](Cc1c[nH]c2ccccc12)C(=O)N[C@@H](CC(C)C)C(=O)N[C@H](C(=O)N[C@@H](CCCNC(=N)N)C(=O)N[C@@H](CCC(N)=O)C(=O)N[C@@H](CCCNC(=N)N)C(=O)N[C@@H](Cc1ccc(O)cc1)C(N)=O)[C@@H](C)O)C(C)C [Compound 15, N{alpha-4}-(3-methylbutanoyl)-N{epsilon-7}-(6-[(4S)-4-carboxy-4-(17-carboxyheptadecanamido)butanamido]hexanoyl)[4A,7K,9E,17I,18Q,19Q,22V,28Y,30W,31L]-hPYY(4-36)]
> 5000	–	10.0	10.0	–	2.68	CC[C@H](C)[C@H](NC(=O)[C@H](Cc1ccc(O)cc1)NC(=O)[C@H](Cc1ccc(O)cc1)NC(=O)[C@H](CCCNC(=N)N)NC(=O)[C@H](CCC(N)=O)NC(=O)[C@H](CC(C)C)NC(=O)[C@H](CCC(=O)O)NC(=O)[C@H](CCC(=O)O)NC(=O)[C@@H]1CCCN1C(=O)[C@H](CO)NC(=O)[C@H](C)NC(=O)[C@H](CC(=O)O)NC(=O)[C@H](CCC(=O)O)NC(=O)[C@H](CCC(=O)O)NC(=O)[C@@H]1CCCN1C(=O)[C@H](CCCCNC(=O)CCCCCNC(=O)CC[C@H](NC(=O)CCCCCCCCCCCCCCCCC(=O)O)C(=O)O)NC(=O)[C@H](CCC(=O)O)NC(=O)[C@@H]1CCCN1C(=O)[C@H](C)NC(=O)CC(C)C)C(=O)N[C@@H](CO)C(=O)N[C@@H](CC(C)C)C(=O)N[C@@H](CCCNC(=N)N)C(=O)N[C@@H](Cc1c[nH]cn1)C(=O)N[C@@H](Cc1ccc(O)cc1)C(=O)N[C@@H](Cc1ccc(O)cc1)C(=O)N[C@@H](CC(N)=O)C(=O)N[C@@H](Cc1c[nH]c2ccccc12)C(=O)N[C@@H](CC(C)C)C(=O)N[C@H](C(=O)N[C@@H](CCCNC(=N)N)C(=O)N[C@@H](CCC(N)=O)C(=O)N[C@@H](CCCNC(=N)N)C(=O)N[C@@H](Cc1ccc(O)cc1)C(N)=O)[C@@H](C)O [Compound 76, N{alpha-4}-(3-methylbutanoyl)-N{epsilon-7}-(6-[(4S)-4-carboxy-4-(17-carboxyheptadecanamido)butanamido]hexanoyl)-[4A,7K,9E,18Q,22I,28Y,30W,31L]-hPYY(4-36)]
